Assay results: US20230012374A1, “PROCESS FOR PRODUCING HERBICIDE AND INTERMEDIATE THEREOF” (KUMIAI CHEMICAL INDUSTRY CO., LTD., priority 2019, published 2023)

Assay: Bulk specific gravity of pyroxasulfone crystals
Assay type: physicochemical
Settings: crystal of pyroxasulfone

`Cn1nc(C(F)(F)F)c(CS(=O)(=O)C2=NOC(C)(C)C2)c1OC(F)F` [Comparative Example 3-1, 3-[(5-difluoromethoxy-1-methyl-3-trifluoromethylpyrazol-4-yl)methylsulfonyl]-4,5-dihydro-5,5-dimethylisoxazole] gave a bulk specific gravity of 0.53 g/mL.

For `Cn1nc(C(F)(F)F)c(CS(=O)(=O)C2=NOC(C)(C)C2)c1OC(F)F` [Example 3-1, 3-[(5-difluoromethoxy-1-methyl-3-trifluoromethylpyrazol-4-yl)methylsulfonyl]-4,5-dihydro-5,5-dimethylisoxazole], the bulk specific gravity was 1.04 g/mL.
